Results reported in patent US20210276960A1, “INHIBITORS OF TISSUE TRANSGLUTAMINASE 2 (TG2) AND USES THEREOF” (Northwestern University, priority 2020, published 2021).

Test system: TG2 co-localization with integrin β1, p-FAK, c-Src, p-c-Src in SKOV3 cells
Test: Confocal IF co-localization analysis
Assay type: cell-based
Conditions: 1 μM
Experimental: In order to analyze cell adhesion complex proteins expression and localization upon early attachment, cells were treated as stated above and then seeded onto FN-coated cover slips for 30 minutes at 37° C. Samples were fixed in 4% p-formaldehyde (PFA) and permeabilized with 0.2% Triton-X-100. After blocking, focal contacts were identified by using anti-vinculin antibodies, activation of integrins signaling pathway was assessed by antibodies against phosphorylated focal adhesion kinase (FAK), while actin cytoskeleton was labeled by Alexa Fluor 488-conjugated phalloidin (Life Technologies, #A12379). Nuclei were stained with 1:10000 Hoechst (Thermo Scientific) and specimens were mounted in Prolong Gold anti-fadereagent (Life Technologies). Cells were analyzed by laser scanning using a Nikon A1RGaAsPConfocal Laser Microscope. For co-localization analyses, SKOV3 cells were treated with DMSO (control) or TG53 (1 μM) and plated on FN-coated chamber slides (BD Biosciences) for 72 hrs. […] Colocalization percentage was calculated by normalizing the pixels corresponding to Cy5 or Alexa Fluor 488 emissions to DAPI pixels in the same cell, followed by merging area of green with area of red and determination of average of overlap areas. A Student' t test was calculated to determine statistical significance of differences between drug treated and DMSO control treated cells.

COc1ccc(Cl)cc1C(=O)Nc1ccc(Nc2nc(C)cc(N(C)C)n2)cc1 [TG53]
FAK and Src phosphorylation: marked decrease | colocalization of TG2 with integrin β1, pFAK, c-Src and pSrc: significant decrease
